Results as given in patent publication US6858640B2, “Tricyclic indole compounds having affinity for serotonin receptor” (Shionogi & Co., Ltd., priority 2000, dated 2005).
pKi: −log10 of the molar value. Counter-ions that a name gives are not always drawn. Like-named read-outs stand apart in the source and are kept apart here.

Assays:
5HT1A = biological target: T1, 5HT1A (Rattus norvegicus, UniProt P19327); assay: radioligand binding to serotonin receptor, cell membrane sample, Ki by Cheng-Prusoff; settings: for Ki: rat hippocampus membranes, 1 nM [3H] 8-OH-DPAT, 25° C. 30 min, read-out: Ki value (nM) ±SE 5-HT1A
T1 construct: prepared from brain of rats or HEK293 cells, which expressed the receptor; from tissue; host or cells: rat brain membranes
T1 sequence (P19327 1-422): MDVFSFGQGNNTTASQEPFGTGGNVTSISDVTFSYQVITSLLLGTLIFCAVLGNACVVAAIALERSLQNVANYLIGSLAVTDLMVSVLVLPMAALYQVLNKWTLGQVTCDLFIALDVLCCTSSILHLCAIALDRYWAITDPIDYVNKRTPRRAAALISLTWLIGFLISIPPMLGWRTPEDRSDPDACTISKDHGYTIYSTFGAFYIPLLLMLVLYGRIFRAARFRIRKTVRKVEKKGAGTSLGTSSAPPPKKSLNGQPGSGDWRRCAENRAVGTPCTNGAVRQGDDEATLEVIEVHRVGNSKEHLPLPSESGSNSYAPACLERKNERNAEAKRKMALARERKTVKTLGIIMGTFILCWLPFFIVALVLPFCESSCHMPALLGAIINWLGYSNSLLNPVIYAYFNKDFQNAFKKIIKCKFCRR
Description: (§1) A mixture of radioactive ligands and some cardinal numbers of test compounds was incubated with a sample of cell membrane, which was prepared from brain of rats or HEK293 cells, which expressed the receptor, under the following conditions. Then, the sample was filtered by suction on a Whatman GF/C. Radioactivity on the filter was encountered by the use of a liquid scintillation counter. 50% Inhibitory concentration values (IC50 values) of each selective binding were calculated for test compounds and the Ki value was obtained by applying an equation of Cheng-Prusoff [Biochem. Pharmacol. 22 (1973) 3099-3108] Ki=IC50/(1+[L]/Kd).

5HT6 = biological target: T2, 5HT6 (Homo sapiens, UniProt P50406); assay: as above; settings: for Ki: rat 5-HT6 (HEK293), 8 nM [3H] 5HT 25° C. 120 min or 4 nM [3H] LSD 37° C. 60 min, read-out: Ki value (nM) ±SE 5-HT6
T2 construct: expressed in transfected cells; host or cells: HEK293
Description: as §1

T2 sequence (P50406 whole entry, species assumed): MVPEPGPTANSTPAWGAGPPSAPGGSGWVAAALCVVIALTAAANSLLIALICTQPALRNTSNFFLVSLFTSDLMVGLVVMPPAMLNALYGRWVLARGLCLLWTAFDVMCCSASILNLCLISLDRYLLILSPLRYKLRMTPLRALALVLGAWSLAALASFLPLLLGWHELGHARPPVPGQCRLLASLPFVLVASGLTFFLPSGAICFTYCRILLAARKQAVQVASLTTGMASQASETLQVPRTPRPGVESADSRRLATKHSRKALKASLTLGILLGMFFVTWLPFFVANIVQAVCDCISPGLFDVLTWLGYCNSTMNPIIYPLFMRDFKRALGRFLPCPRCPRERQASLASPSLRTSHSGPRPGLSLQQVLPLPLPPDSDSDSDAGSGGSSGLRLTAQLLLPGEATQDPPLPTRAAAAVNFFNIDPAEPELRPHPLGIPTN

Row | SMILES | melting point | pKi (5HT6) | also measured
1 | N[C@@H]1COc2cccc3[nH]cc(c23)C1 | 202 to 203 °C | – | –
2 | c1cc2c3c(c[nH]c3c1)CC1(CO2)OCCO1 | 200 to 202 °C | – | –
3 | OC1COc2cccc3[nH]cc(c23)C1 (stereo not shown) | 169 to 170 °C | – | –
4 | CNC1COc2cccc3[nH]cc(c23)C1 (stereo not shown) (as salt: oxalate) [Compound 19-2] | 112 to 116 °C | – | –
5 | CN(C)C1COc2cccc3c2c(cn3S(=O)(=O)c2ccc(Cl)cc2)C1 (stereo not shown) (as salt: oxalate) [Compound 20-6] | 114 to 118 °C (dec.) | – | –
6 | CN(C)C1COc2cccc3c2c(cn3S(=O)(=O)c2cccs2)C1 (stereo not shown) (as salt: oxalate) [Compound 20-9] | 142 to 144 °C (dec.) | – | –
7 | CN(C)C1COc2cccc3c2c(cn3S(=O)(=O)c2ccc(C(F)(F)F)cc2)C1 (stereo not shown) (as salt: oxalate) [Compound 20-10] | 119 to 122 °C (dec.) | – | –
8 | CN(C)C1COc2cccc3c2c(cn3S(=O)(=O)c2ccc(Br)cc2)C1 (stereo not shown) (as salt: oxalate) [Compound 20-11] | 147 to 150 °C (dec.) | – | –
9 | CN(C)C1COc2cccc3c2c(cn3S(=O)(=O)c2cccc(Br)c2)C1 (stereo not shown) (as salt: oxalate) [Compound 20-12] | 168 to 171 °C (dec.) | – | –
10 | CN(C)C1COc2cccc3c2c(cn3S(=O)(=O)c2ccccc2Br)C1 (stereo not shown) (as salt: oxalate) [Compound 20-13] | 173 to 176 °C (dec.) | – | –
11 | COc1ccc(S(=O)(=O)n2cc3c4c(cccc42)OCC(N(C)C)C3)cc1 (stereo not shown) (as salt: oxalate) [Compound 20-14] | 140 to 142 °C (dec.) | – | –
12 | COc1ccc(S(=O)(=O)n2cc3c4c(cccc42)OCC(N(C)C)C3)cc1OC (stereo not shown) (as salt: oxalate) [Compound 20-15] | 123 to 126 °C (dec.) | – | –
13 | CN(C)C1COc2cccc3c2c(cn3S(=O)(=O)/C=C/c2ccccc2)C1 (stereo not shown) (as salt: oxalate) [Compound 20-16] | 169 to 171 °C (dec.) | – | –
14 | CN(C)C1COc2cccc3c2c(cn3S(=O)(=O)c2cc(Cl)ccc2Cl)C1 (stereo not shown) (as salt: oxalate) [Compound 20-17] | 161 to 163 °C (dec.) | – | –
15 | CN(C)C1COc2cccc3c2c(cn3S(=O)(=O)c2ccc(F)cc2)C1 (stereo not shown) (as salt: oxalate) [Compound 20-19] | 143 to 144 °C (dec.) | – | –
16 | CN(C)C1COc2cccc3c2c(cn3S(=O)(=O)c2cc(F)c(Br)cc2F)C1 (stereo not shown) (as salt: oxalate) [Compound 20-20] | 128 to 131 °C (dec.) | – | –
17 | CN(C)C1COc2cccc3c2c(cn3S(=O)(=O)c2ccc(Cl)s2)C1 (stereo not shown) (as salt: oxalate) [Compound 20-21] | 154 to 156 °C (dec.) | – | –
18 | CN(C)C1COc2cccc3c2c(cn3S(=O)(=O)c2ccc(F)cc2F)C1 (stereo not shown) (as salt: oxalate) [Compound 20-22] | 163 to 164 °C (dec.) | – | –
19 | COc1ccc(OC)c(S(=O)(=O)n2cc3c4c(cccc42)OCC(N(C)C)C3)c1 (stereo not shown) (as salt: oxalate) [Compound 20-23] | 147 to 150 °C (dec.) | – | –

Row | SMILES | melting point | pKi (5HT6) | also measured
20 | CN(C)C1COc2cccc3c2c(cn3S(=O)(=O)c2ccc(-c3ccon3)s2)C1 (stereo not shown) (as salt: oxalate) [Compound 20-25] | 113 to 115 °C (dec.) | – | –
21 | CNC1COc2cccc3c2c(cn3S(=O)(=O)c2ccccc2)C1 (stereo not shown) (as salt: oxalate) [Compound 36-2] | 208 to 213 °C (dec.) | – | –
22 | NC1COc2cccc3[nH]cc(c23)C1 (stereo not shown) [Compound 8-1, 2,7,8,9-Tetrahydro-6-oxa-2-azabenzo[c,d]azulen-8-ylamine] | 172 to 173 °C | – | Ki (5HT1A): 36 nM
23 | CN(C)C1CC(=O)c2cccc3[nH]cc(c23)C1 (stereo not shown) [Compound 19-1, Dimethyl-(2,7,8,9-tetrahydro-6-oxo-2-azabenzo[cd]azulen-8-yl)amine] | – | – | Ki (5HT1A): 81 nM
24 | CNC1COc2cccc3[nH]cc(c23)C1 (stereo not shown) [Compound 19-2] | – | 7.01 | pKi (5HT1A): 7.64
25 | CCCN(CCC)C1COc2cccc3[nH]cc(c23)C1 (stereo not shown) [Compound 19-5] | 60 to 61 °C | – | pKi (5HT1A): 8.00
26 | C=CCNC1COc2cccc3[nH]cc(c23)C1 (stereo not shown) [Compound 19-7] | 112 to 113 °C | – | pKi (5HT1A): 7.72
27 | c1cc2c3c(c[nH]c3c1)CC(N1CCCC1)CO2 (stereo not shown) [Compound 19-10] | 137 to 139 °C | – | pKi (5HT1A): 8.60
28 | c1cc2c3c(c[nH]c3c1)CC(NC1CC1)CO2 (stereo not shown) [Compound 19-19] | 130 to 131 °C | – | pKi (5HT1A): 8.42
29 | CN(C)C1CC(=O)c2cccc3c2c(cn3S(=O)(=O)c2ccccc2)C1 (stereo not shown) [Compound 20-1, (2-Benzenesulfonyl-2,7,8,9-tetrahydro-6-oxo-2-azabenzo[cd]azulen-8-yl)dimethylamine oxalate] | – | 8.77 | –
30 | CN(C)C1COc2cccc3c2c(cn3S(=O)(=O)c2cccc3ccccc23)C1 (stereo not shown) [Compound 20-5] | 148 to 149 °C | 9.31 | –
31 | CN(C)C1COc2cccc3c2c(cn3S(=O)(=O)c2ccc(Cl)cc2)C1 (stereo not shown) [Compound 20-6] | – | – | Ki (5HT6): 2.7 nM
32 | CN(C)C1COc2cccc3c2c(cn3S(=O)(=O)c2cccs2)C1 (stereo not shown) [Compound 20-9] | – | 7.11 | pKi (5HT1A): 7.07
33 | CN(C)C1COc2cccc3c2c(cn3S(=O)(=O)c2ccc(C(F)(F)F)cc2)C1 (stereo not shown) [Compound 20-10] | – | 7.35 | pKi (5HT1A): 7.02
34 | CN(C)C1COc2cccc3c2c(cn3S(=O)(=O)c2ccc(Br)cc2)C1 (stereo not shown) [Compound 20-11] | – | 8.24 | –
35 | CN(C)C1COc2cccc3c2c(cn3S(=O)(=O)c2cccc(Br)c2)C1 (stereo not shown) [Compound 20-12] | – | 8.57 | –
36 | CN(C)C1COc2cccc3c2c(cn3S(=O)(=O)c2ccccc2Br)C1 (stereo not shown) [Compound 20-13] | – | 8.41 | –
37 | COc1ccc(S(=O)(=O)n2cc3c4c(cccc42)OCC(N(C)C)C3)cc1 (stereo not shown) [Compound 20-14] | – | 7.66 | –
38 | COc1ccc(S(=O)(=O)n2cc3c4c(cccc42)OCC(N(C)C)C3)cc1OC (stereo not shown) [Compound 20-15] | – | – | Ki (5HT6): 29 nM

Row | SMILES | melting point | pKi (5HT6) | also measured
39 | CN(C)C1COc2cccc3c2c(cn3S(=O)(=O)/C=C/c2ccccc2)C1 (stereo not shown) [Compound 20-16] | – | 7.66 | –
40 | CN(C)C1COc2cccc3c2c(cn3S(=O)(=O)c2cc(Cl)ccc2Cl)C1 (stereo not shown) [Compound 20-17] | – | 7.54 | –
41 | CN(C)C1COc2c(Br)ccc3c2c(cn3S(=O)(=O)c2ccccc2)C1 (stereo not shown) [Compound 20-18] | 89 to 90 °C | 7.66 | –
42 | CN(C)C1COc2cccc3c2c(cn3S(=O)(=O)c2ccc(F)cc2)C1 (stereo not shown) [Compound 20-19] | – | 7.92 | –
43 | CN(C)C1COc2cccc3c2c(cn3S(=O)(=O)c2cc(F)c(Br)cc2F)C1 (stereo not shown) [Compound 20-20] | – | – | Ki (5HT6): 11 nM
44 | CN(C)C1COc2cccc3c2c(cn3S(=O)(=O)c2ccc(Cl)s2)C1 (stereo not shown) [Compound 20-21] | – | – | Ki (5HT6): 2.7 nM
45 | CN(C)C1COc2cccc3c2c(cn3S(=O)(=O)c2ccc(F)cc2F)C1 (stereo not shown) [Compound 20-22] | – | – | Ki (5HT6): 26 nM
46 | COc1ccc(OC)c(S(=O)(=O)n2cc3c4c(cccc42)OCC(N(C)C)C3)c1 (stereo not shown) [Compound 20-23] | – | – | Ki (5HT6): 9.9 nM
47 | COc1cccc(S(=O)(=O)n2cc3c4c(cccc42)OCC(N(C)C)C3)c1 (stereo not shown) [Compound 20-24] | 103 to 104 °C | 8.49 | –
48 | CN(C)C1COc2cccc3c2c(cn3S(=O)(=O)c2ccc(-c3ccon3)s2)C1 (stereo not shown) [Compound 20-25] | – | – | Ki (5HT6): 36 nM
49 | CN(C)C1COc2cccc3[nH]c(Br)c(c23)C1 (stereo not shown) [Compound 21, (1-Bromo-2,7,8,9-tetrahydro-6-oxa-2-azabenzo[cd]azulen-8-yl)dimethylamine] | 170 to 172 °C | – | Ki (5HT1A): 14 nM
50 | O=S(=O)(c1ccccc1)n1cc2c3c(cccc31)OCC(N1CCCC1)C2 (stereo not shown) [Compound 36-1, 2-Benzenesulfonyl-8-pyrrolidin-1-yl-2,7,8,9-tetrahydro-6-oxa-2-azabenzo[cd]azulene] | – | 7.19 | Ki (5HT1A): 29 nM
51 | CNC1COc2cccc3c2c(cn3S(=O)(=O)c2ccccc2)C1 (stereo not shown) [Compound 36-2] | – | 8.07 | –
52 | CCc1ccc2[nH]cc3c2c1OCC(N(C)C)C3 (stereo not shown) [Compound 41, (5-Ethyl-2,7,8,9-tetrahydro-6-oxa-2-azabenzo[cd]azulen-8-yl)dimethylamine] | – | – | Ki (5HT1A): 57 nM
53 | CN(C)C1COc2c(C=O)ccc3[nH]cc(c23)C1 (stereo not shown) [Compound 46-1, 8-Dimethylamino-2,7,8,9-tetrahydro-6-oxa-2-azabenzo[cd]-azulene-5-carbaldehyde] | – | 7.55 | –
54 | CSc1ccc2[nH]cc3c2c1OCC(N(C)C)C3 (stereo not shown) [Compound 46-3] | 112 to 113 °C | – | pKi (5HT1A): 7.74
55 | CN(C)C1COc2c(C=NO)ccc3[nH]cc(c23)C1 (stereo not shown) [Compound 47, 8-Dimethylamino-2,7,8,9-tetrahydro-6-oxa-2-azabenzo[cd]-azulene-5-carbaldehyde Oxime] | – | 7.11 | –
56 | CN(C)C1COc2c(C#N)ccc3[nH]cc(c23)C1 (stereo not shown) [Compound 48, 8-Dimethylamino-2,7,8,9-tetrahydro-6-oxa-2-azabenzo[cd]-azulene-5-carbonitrile] | – | 9.00 | –
